Reference: patent US5814666A, “Encapsulated and non-encapsulated nitric oxide generators used as antimicrobial agents” (The United States as represented by the Department of …, priority 1995, dated 1998)
Converted amounts (≈) assume the structure as drawn. Structures can show the parent of a compound that is named as a salt. Where two headings read alike, the source gives them in different places.

Tests used:
[1] = system: DNA synthesis; conditions: in words; cited from earlier work
[2] = Half-life of nitric oxide generators at pH 7.4 and 37° C. (Table 1)
[3] = system: Francisella tularensis; format: in vivo, mice
[4] = system: Candida albicans; assay: microbe, parasite or virus in culture; format: cell-based; conditions: read-out: IC50 (growth inhibition)
[5] = system: Francisella tularensis; assay: microbe, parasite or virus in culture; format: cell-based; conditions: read-out: IC50 (growth inhibition)
[6] = system: Leishmania major; assay: microbe, parasite or virus in culture; format: cell-based; conditions: read-out: IC50 (growth inhibition)
[7] = system: Leishmania major; assay: Blocking Leishmania major growth in vitro compared with glucantime; format: cell-based; conditions: equivalent molar concentrations of NONOates and glucantime
[8] = system: P. falciparum clone CDC/Indochina III (W2); assay: Anti-malaria in vitro screen, P. falciparum clone W2; conditions: Plasmodium falciparum
[9] = system: P. falciparum clone CDC/Sierra Leone I (D6); assay: Anti-malaria in vitro screen, P. falciparum clone D6; conditions: Plasmodium falciparum
[10] = system: macrophages; assay: NO2^- / NO release by macrophages after exposure to liposome-encapsulated or non-encapsulated NONOates (Table 8); conditions: non-encapsulated; 50 μM, 1 hr incubation, culture medium after 24 hrs
[11] = Stability of nitric oxide generators in PBS at room temperature, absorbance (Table 5); conditions: for Initial Abs. / 24-hour Abs.: PBS, at peak wavelength; for Initial Abs.: immediately; for 24-hour Abs.: room temperature; for degraded at 24 h: pbs
[12] = physchem; conditions: pH 7.4
[13] = system: Plasmodium falciparum; assay: Anti-malaria in vitro screen, overall result; conditions: in words
[14] = pH 7.4
[15] = in words; cited from earlier work
[16] = system: tumor cells; conditions: tumor cells in vitro; in words; cited from earlier work
[17] = system: Mycobacterium tuberculosis; conditions: direct delivery; in words; cited from earlier work
[18] = pH 7.4, 37° C., result in words
[19] = experiment #1, IP 200 μM two days after inoculation

## CC(=O)N[C@H](C(=O)O)C(C)(C)SN=O (racemic) [S-nitroso-N-acetylpenicillamine]
[1]
  inhibition of DNA synthesis: effective at inhibiting DNA synthesis

## C=CCON=[N+]([O-])N(CC)CC [A-DEA/NO]
[2]; [18]
  Half-life: stable

## C=CCON=[N+]([O-])NC(C)C [A-IPA/NO]
[2]; [18]
  Half-life: stable

## CCN(CC)[N+]([O-])=NOCCBr [BE-DEA/NO]
[2]; [18]
  Half-life: stable

## CCOC(=O)CON=[N+]([O-])NC(C)C [CEM-IPA/NO]
[2]; [18]
  Half-life: stable

## CCN(CC)[N+]([O-])=NO [DEA/NO, diethylamine-bis(nitric oxide) adduct sodium salt]
[3]; [19]
  #Dead/Total: 5/5
  % Protected: 0%
[2]; pH 7.4
  Half-life: 2 min

## NCCN(CCN)[N+]([O-])=NO [DETA/NO]
[4]
  IC50: < 100 µM
[5]
  IC50: < 100 µM
[6]
  IC50: < 10000 µM
[7]
  times more effective than glucantime at blocking Leishmania major growth: 7.2 times
[8]
  IC50: 0.037 mg/L (≈ 0.227 µM)
  IC90: 0.094 mg/L (≈ 0.576 µM)
[9]
  IC50: 4.83 mg/L (≈ 29.6 µM)
  IC90: 10.1 mg/L (≈ 62 µM)
[10]
  NO2 --(nmol/ml): 0 nmol/mL

## CCON=[N+]([O-])N(CC)CC [E-DEA/NO]
[2]; [18]
  Half-life: stable

## CCN(CC)[N+]([O-])=NOCCO [HE-DEA/NO]
[2]; [18]
  Half-life: stable

## CCN(CC)[N+]([O-])=NOCC(C)O (stereo not drawn) [HP-DEA/NO]
[2]; [18]
  Half-life: stable

## CCN(CC)[N+]([O-])=NOC [M-DEA/NO]
[2]; [18]
  Half-life: stable
[11]
  Initial Abs.: 3.454
  24-hour Abs.: 3.020
  degraded at 24 h: 14%

## CON=[N+]([O-])NC(C)C [M-IPA/NO]
[2]; [18]
  Half-life: stable

## CCN(CC)[N+]([O-])=NOCOC [MOM-DEA/NO]
[3]; [19]
  #Dead/Total: 1/5
  % Protected: 80%
[3]; experiment #2, IP 200 μM two days after inoculation
  #Dead/Total: 1/5
[3]; experiment #2, IP 200 μM, control 40% protected
  % Protected: 80%
[3]; two subsequent experiments, in words
  anti-microbial effects: not found to be significant in two subsequent experiments
[2]; pH 7.4
  Half-life: 7200 min

## COCON=[N+]([O-])NC(C)C [MOM-IPA/NO]
[2]; [18]
  Half-life: stable
[11]
  Initial Abs.: 3.530
  24-hour Abs.: 3.340
  degraded at 24 h: 5%

## [Na+].[Na+].[O-][N+]([O-])=NO [OXI/NO, sodium trioxodinitrate(II) monohydrate]
[2]; pH 7.4, 37° C.
  Half-life: 2 min

## CCCON=[N+]([O-])N(CC)CC [P-DEA/NO]
[2]; [18]
  Half-life: stable

## CCN(CC)[N+]([O-])=NOS(=O)(=O)N(C)C [S-DEA/NO]
[2]; pH 7.4
  Half-life: 30 min

## NCCCNCCCCN(CCCN)[N+]([O-])=NO [SPER/NO, spermine-bis(nitric oxide) adduct monohydrate]
[4]
  IC50: < 100 µM
[5]
  IC50: < 10 µM
[6]
  IC50: < 100 µM
[7]
  times more effective than glucantime at blocking Leishmania major growth: 6.7 times
[12]
  Half-life: 39 min
[13]
  anti-malarial effectiveness: effective
[8]
  IC50: 5.65 mg/L
  IC90: 10 mg/L
[9]
  IC50: 5.31 mg/L
  IC90: 9.53 mg/L
[10]
  NO2 --(nmol/ml): 1 ± 1 nmol/mL

## N.N.O=S(=O)(O)[N+]([O-])=NO [SULFI/NO]
[14]
  Half-life: 7 min

## C=CON=[N+]([O-])N(CC)CC [V-DEA/NO]
[2]; [18]
  Half-life: stable

## CCN(CC)[N+]([O-])=NOCOC(C)=O [acetoxy-DEA/NO]
[3]; [19]
  #Dead/Total: 2/4
  % Protected: 50%
[7]
  times more effective than glucantime at blocking Leishmania major growth: 8.9 times
[13]
  anti-malarial effectiveness: effective
[8]
  IC50: 17.7 mg/L (≈ 86.5 µM)
  IC90: 19.2 mg/L (≈ 93.4 µM)
[9]
  IC50: 0.267 mg/L (≈ 1.3 µM)
  IC90: 0.295 mg/L (≈ 1.44 µM)
[2]; [18]
  Half-life: stable

## O=[N+]([O-])OCC(CO[N+](=O)[O-])O[N+](=O)[O-] [glyceryl trinitrate]
[15]
  tolerance / toxicity: development of tolerance

## nitric oxide
[16]
  inhibition of DNA synthesis and mitochondrial respiration: inhibit DNA synthesis and mitochondrial respiration of tumor cells in vitro
[17]
  killing of intracellular pathogens: kills intracellular pathogens such as Mycobacterium tuberculosis
